From patent publication US11292781B2, “Pyrimidine tricyclic enone derivatives for inhibition of ROR-gamma and other uses” (REATA PHARMACEUTICALS, INC., priority 2016, dated 2022)

Assays:
[1] = tested on: IL-17A levels in primary human CD4+ T cells differentiated into Th17 cells; experiment: IL-17 release from differentiated primary human T-cells (IL-17A HTRF); assay type: cell-based; settings: primary human CD4+ T cells, Th17 differentiation, 46-hour incubation; read-out: hIL17 IC50
Procedure: C. IL-17 Release from Differentiated Primary Human T-Cells and Cell Viability Primary human cryopreserved CD4+ T Cells (Lonza, donor #0000402103) were plated in Lymphocyte Growth Medium-3 (LGM-3, Lonza) according to the manufacturer's recommendations, and allowed to recover for approximately 3 hours at 37° C. with 5% CO2 in a humidified atmosphere. […] Triplicate wells were plated for each test condition. DMSO (final concentration ≤0.1%) was used as the vehicle. Immediately after plating, CD4+ T cells were activated by adding Dynabeads Human T-Activator CD3/CD28 (Life Technologies; bead-to-cell ratio of 1:2.5) and differentiated into Th17 cells by adding a mixture of the following cytokines: transforming growth factor-β (TGF-β, 5 ng/mL), IL-6 (20 ng/mL), IL-23 (20 ng/mL), and […] (10 ng/mL). Undifferentiated control cells received only cytokine IL-2 (50 ng/mL). All human recombinant cytokines were purchased from R&D Systems. Following a 46-hour incubation at 37° C. with 5% CO2 in a humidified atmosphere, the plates were centrifuged for 3 minutes at 250×g, and half of the supernatant was transferred to a new plate to be used in the IL-17A assay (see below). Cell viability was assessed in the original plate using the CyQuant Direct Assay (Life Technologies). CyQuant values from test compound samples were normalized to those from DMSO-treated samples. The concentration of IL-17A in the supernatant was measured using the Homogeneous Time-Resolved Fluorescence (HTRF) assay (Cisbio Bioassays) according to the manufacturer's protocol. The assay was performed at room temperature in low volume, solid white 384-well plates (Greiner Bio-One). […] A non-linear regression analysis with log (inhibitor) vs. normalized response using a variable slope was applied to fit the data and determine the IC50 values for inhibition of IL-17A levels and cell viability.

[2] = tested on: Nrf2 transcription factor (GST ARE luciferase reporter in AREc32 cells); experiment: AREc32 luciferase reporter assay; assay type: cell-based, human; settings: EC2×: concentration required to increase GST ARE luciferase reporter activity by 2-fold, 19 hours
How it was run: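 AREc32 cells (MCF-7 carrying luciferase under eight rat GSTA2 ARE copies) treated with compound; luciferase measured by ONE-Glo luminescence. Signal normalised to DMSO wells as fold-induction, fitted by variable-slope log(agonist)-response regression, with EC2× interpolated from the curve.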

SMILES	IC50 [1]	HRF2 ARE 2× [2]
C[C@H]1C(=O)C(C#N)=C[C@@]2(C)c3nc(-c4ccnc(N5CCOCC5)c4)nc(-c4ccccc4F)c3CC[C@H]12 [T64]	35 nM	425 nM
C[C@H]1C(=O)C(C#N)=C[C@@]2(C)c3nc(-c4ccnc5ccccc45)nc(-c4ccco4)c3CC[C@H]12 [T102]	153 nM	287 nM
C[C@H]1C(=O)C(C#N)=C[C@@]2(C)c3nc(-c4ccnc5c(F)cccc45)nc(OC4CCCC4)c3CC[C@H]12 [T121]	36 nM	390 nM
C[C@H]1C(=O)[C@@]2(C#N)O[C@H]2[C@@]2(C)c3nc(-c4ccnc5ccccc45)nc(-c4ccccc4F)c3CC[C@H]12 [T132]	74 nM	437 nM
Cc1nc(-c2nc(-c3ccnc4ccccc34)nc3c2CC[C@@H]2[C@@H](C)C(=O)C(C#N)=C[C@@]32C)no1 [T106]	173 nM	139 nM
Cc1cc(-c2nc(OC3CCCC3)c3c(n2)[C@]2(C)C=C(C#N)C(=O)[C@H](C)[C@H]2CC3)c2ccccc2n1 [T111]	19 nM	317 nM
Cc1cc(-c2nc(-c3ccccc3F)c3c(n2)[C@]2(C)C=C(C#N)C(=O)[C@H](C)[C@H]2CC3)c2cccc(F)c2n1 [T63]	21 nM	259 nM
Cc1cnccc1-c1nc(-c2ccccc2F)c2c(n1)[C@]1(C)CC(C#N)=C(O)[C@H](C)[C@H]1CC2 [T55]	590 nM	>2000 nM
C[C@H]1C(=O)C(C#N)=C[C@@]2(C)c3nc(-c4nccc5ccccc45)nc(-c4ccccc4F)c3CC[C@H]12 [T75]	42 nM	552 nM
CC(=O)N1CCC=C(c2nc(-c3ccccc3)c3c(n2)[C@]2(C)C=C(C#N)C(=O)[C@H](C)[C@H]2CC3)C1 [T49]	181 nM	491 nM
C[C@H]1C(=O)C(C#N)=C[C@@]2(C)c3nc(-c4ccnc5cc(F)ccc45)nc(-c4ccccc4F)c3CC[C@H]12 [T76]	35 nM	315 nM
C[C@H]1C(=O)C(C#N)=C[C@@]2(C)c3nc(-c4ccnc5ccccc45)nc(-c4ccc(F)cc4)c3CC[C@H]12 [T40]	63 nM	273 nM
C[C@H]1C(=O)C(C#N)=C[C@@]2(C)c3nc(-c4ccnc5ccccc45)nc(OC4CCC4)c3CC[C@H]12 [T94]	58 nM	321 nM
C[C@H]1C(=O)C(C#N)=C[C@@]2(C)c3nc(-c4ccnc5ccc(F)cc45)nc(-c4ccccc4F)c3CC[C@H]12 [T89]	62 nM	274 nM
CC1(C)C(=O)C(C#N)=C[C@@]2(C)c3nc(-c4ccnc(C5CC5)c4)nc(-c4ccccc4F)c3CC[C@H]12 [T125]	27 nM	549 nM
C[C@H]1C(=O)C(C#N)=C[C@@]2(C)c3nc(-c4cncc5ccccc45)nc(-c4ccccc4F)c3CC[C@H]12 [T66]	39 nM	190 nM

SMILES	IC50 [1]	HRF2 ARE 2× [2]
C[C@H]1C(=O)C(C#N)=C[C@@]2(C)c3nc(-c4cc(CF)nc5ccccc45)nc(OC4CCCC4)c3CC[C@H]12 [T120]	29 nM	334 nM
C[C@H]1C(=O)C(C#N)=C[C@@]2(C)c3nc(-c4ncnc5ccccc45)nc(OC4CCC4)c3CC[C@H]12 [T112]	85 nM	559 nM
CCC[C@@]1(C)C(=O)C(C#N)=C[C@@]2(C)c3nc(-c4ccnc(C5CC5)c4)nc(-c4ccccc4F)c3CC[C@H]12 [T137]	9 nM	274 nM
C[C@H]1C(=O)C(C#N)=C[C@@]2(C)c3nc(-c4ncnc5ccccc45)nc(-c4cccc(F)c4)c3CC[C@H]12 [T113]	48 nM	734 nM
CC(C)Oc1nc(-c2ccnc3ccccc23)nc2c1CC[C@@H]1[C@@H](C)C(=O)C(C#N)=C[C@@]21C [T41]	64 nM	528 nM
Cc1noc(C)c1-c1nc(-c2ccccc2F)c2c(n1)[C@]1(C)C=C(C#N)C(=O)[C@H](C)[C@H]1CC2 [T87]	109 nM	245 nM
Cc1cc(-c2nc(-c3ccc(F)cc3)c3c(n2)[C@]2(C)C=C(C#N)C(=O)[C@H](C)[C@H]2CC3)c2ccccc2n1 [T109]	18 nM	251 nM
C[C@H]1C(=O)C(C#N)=C[C@@]2(C)c3nc(-c4ccnc(-c5ccccc5)c4)nc(-c4ccccc4F)c3CC[C@H]12 [T65]	29 nM	463 nM
Cc1nc(C)c(-c2nc(-c3ccccc3F)c3c(n2)[C@]2(C)C=C(C#N)C(=O)[C@H](C)[C@H]2CC3)s1 [T70]	61 nM	391 nM
C[C@H]1C(=O)C(C#N)=C[C@@]2(C)c3nc(-c4ncnc5ccccc45)nc(-c4ccc(F)cc4)c3CC[C@H]12 [T114]	46 nM	484 nM
Cc1cncc(-c2nc(-c3ccccc3F)c3c(n2)[C@]2(C)C=C(C#N)C(=O)[C@H](C)[C@H]2CC3)c1 [T58]	69 nM	155 nM
C[C@H]1C(=O)C(C#N)=C[C@@]2(C)c3nc(-c4ccnc5ccccc45)nc(-c4ccccc4)c3CC[C@H]12 [T32]	68 nM	272 nM
CC1(C)C(=O)C(C#N)=C[C@@]2(C)c3nc(-c4cc(CF)nc5ccccc45)nc(-c4ccccc4F)c3CC[C@H]12 [T122]	31 nM	402 nM
C[C@H]1C(=O)C(C#N)=C[C@@]2(C)c3nc(-c4cc(CF)nc5ccccc45)nc(-c4ccccc4F)c3CC[C@H]12 [T115]	14 nM	260 nM
C[C@H]1C(=O)C(C#N)=C[C@@]2(C)c3nc(-c4ccnc5c4CCC5)nc(-c4ccccc4F)c3CC[C@H]12 [T80]	58 nM	312 nM

The next lines start with results.

IC50 [1]	SMILES	HRF2 ARE 2× [2]
22 nM	CCC[C@H]1C(=O)C(C#N)=C[C@@]2(C)c3nc(-c4cccc5ncccc45)nc(-c4ccccc4F)c3CC[C@H]12 [T159]	337 nM
195 nM	C[C@H]1C(=O)C(C#N)C[C@@]2(C)c3nc(-c4ccnc5ccccc45)nc(-c4ccccc4F)c3CC[C@H]12 (some centres unmarked) [T186]	>2000 nM
14 nM	CC1(C)C(=O)C(C#N)=C[C@@]2(C)c3nc(-c4cccc5ncccc45)nc(-c4ccccc4F)c3CC[C@H]12 [T149]	330 nM
77 nM	C[C@H]1C(=O)C(C#N)=C[C@@]2(C)c3nc(-c4ccc(CCS(C)(=O)=O)nc4)nc(-c4ccccc4F)c3CC[C@H]12 [T142]	217 nM
65 nM	CC(C)CC[C@@]12C=C(C#N)C(=O)C[C@H]1CCc1c(-c3ccccc3F)nc(-c3ccnc(CF)c3)nc12 [T165]	863 nM
50 nM	C[C@H]1C(=O)C(C#N)=C[C@@]2(C)c3nc(-c4ccnc5ccccc45)nc(-c4cccc(-c5ccccc5)c4)c3CC[C@H]12 [T162]	601 nM
54 nM	CCC[C@@]12C=C(C#N)C(=O)C[C@H]1CCc1c(-c3ccccc3F)nc(-c3ccnc4ccccc34)nc12 [T156]	333 nM
46 nM	C[C@H]1C(=O)C(C#N)=C[C@@]2(C)c3nc(-c4ccnc(CCC(=O)N(C)C)c4)nc(-c4ccccc4F)c3CC[C@H]12 [T152]	323 nM
167 nM	C[C@H]1C(=O)C(C#N)=C[C@@]2(C)c3nc(-c4ccnc5ccccc45)nc(N4CCCC4)c3CC[C@H]12 [T138]	641 nM
23 nM	C[C@]1(CC2CC2)C(=O)C(C#N)=C[C@@]2(C)c3nc(-c4ccnc5ccccc45)nc(-c4ccccc4F)c3CC[C@H]12 [T157]	304 nM
22 nM	C[C@H]1C(=O)C(C#N)=C[C@@]2(C)c3nc(-c4ccc(-c5ccccc5)nc4)nc(-c4ccccc4F)c3CC[C@H]12 [T141]	557 nM
106 nM	CCC[C@@]12C=C(C#N)C(=O)C[C@H]1CCc1c(-c3ccccc3F)nc(-c3ccnc(C4CC4)c3)nc12 [T167]	493 nM
72 nM	C[C@H]1C(=O)C(C#N)=C[C@@]2(C)c3nc(-c4ccnc(CCS(C)(=O)=O)c4)nc(-c4ccccc4F)c3CC[C@H]12 [T144]	299 nM
21 nM	C[C@H]1C(=O)C(C#N)=C[C@@]2(C)c3nc(-c4ccncc4C4CC4)nc(-c4ccccc4F)c3CC[C@H]12 [T180]	494 nM
65 nM	CCS(=O)(=O)Cc1cc(-c2nc(-c3ccccc3F)c3c(n2)[C@]2(C)C=C(C#N)C(=O)[C@H](C)[C@H]2CC3)ccn1 [T154]	469 nM
